Data as given in patent US12232493B2, “Biopesticide formulation and treatment method thereof” (Xinjiang Institute of Ecology and Geography, Chinese …, priority 2023, dated 2025).

What was measured:
Type in all cases: in vivo
pakchoi = assay: Pot experiment under drought treatment, terrein seed soaking or spraying, pakchoi
Method: (§1) An embodiment of effects of 2 μg/mL terrein formulation on the growth of four crops by seed soaking treatment under drought conditions is as follows. Terrein (purity 95%) is prepared as a solution with a concentration of 2 μg/mL in distilled water, and pakchoi, mung bean, sorghum, and wheat seeds are soaked in it for 6 hours, and the seeds are also soaked in distilled water as a blank control. Subsequently, the soaked crop seeds are sown into potted plants, and each of the treatment group is replicated five times. When the seedlings grew to about 10 cm, the drought treatment culture is carried out. The room temperature is 25° C., the humidity is 70%, 12 hours of light and 12 hours of darkness each day, and the light intensity is 80-100 μmol·m^−2·s^−1. During the period, the soil was kept in a dry state, and 200 mL is watered every week for 30 days, with a total of 800 mL. The drought culture conditions described below are all treated in the same way. After 30 days, the root length, seedling height, and fresh weight of pakchoi, mung bean, sorghum, and wheat are measured, and 10 seedlings are selected from each of the treatment groups, with a total of 50 plants (N=50), hereafter, they are dried in an oven and then measured dry weight. The growth rates of root length, seedling height, fresh weight, and dry weight of pakchoi, mung bean, sorghum, and wheat under 2 μg/mL compared to the blank control are first calculated, that is, An embodiment of effects of 10 μg/mL terrein formulation on the growth of four crops by seed soaking treatment under drought conditions is as follows. Terrein is prepared as a solution with a concentration of 10 μg/mL in distilled water, and pakchoi, mung bean, sorghum, and wheat seeds are soaked in it for 6 hours, and the seeds are also soaked in distilled water as a blank control. Subsequently, the soaked crop seeds are sown into potted plants. When the seedlings grew to about 10 cm, the drought treatment culture is carried out. After 30 days, the root length, seedling height, and fresh weight of pakchoi, mung bean, sorghum, and wheat are measured, hereafter, they are dried in an oven and then measured dry weight. An embodiment of effects of 2 μg/mL terrein formulation on the growth of four crops by spraying treatment under drought conditions is as follows. Seeds of four tested plants are soaked in distilled water and then sowing. Terrein is prepared as a solution with a concentration of 2 μg/mL in distilled water. When the potted pakchoi, mung bean, sorghum, and wheat grow to about 10 cm (15-20 days after sowing), spray them once, with an amount of about 3 mL, and distilled water sprayed used as blank control. Subsequently, the drought treatment culture is carried out. The room temperature is 25° C., the humidity is 70%, 12 hours of light and 12 hours of darkness each day, and the light intensity is 80-100 μmol·m^−2·s^−1. During the period, the soil was kept in a dry state, and 200 mL is watered every week for 30 days, with a total of 800 mL. After 30 days, the root length, seedling height, and fresh weight of pakchoi, mung bean, sorghum, and wheat are measured, hereafter, they are dried in an oven and then measured dry weight. An embodiment of effects of 10 μg/mL terrein formulation on the growth of four crops by spraying treatment under drought conditions is as follows. Seeds of four tested plants are soaked in distilled water and then sowing. Terrein is prepared as a solution with a concentration of 10 μg/mL in distilled water. When the potted pakchoi, mung bean, sorghum, and wheat grow to about 10 cm (15-20 days after sowing), spray them once, with an amount of about 3 mL, and distilled water sprayed used as blank control. Subsequently, the drought treatment is carried out. After 30 days, the root length, seedling height, and fresh weight of pakchoi, mung bean, sorghum, and wheat are measured, hereafter, they are dried in an oven and then measured dry weight. […]

mung bean = assay: Pot experiment under drought treatment, terrein seed soaking or spraying, mung bean
Method: as §1

sorghum = assay: Pot experiment under drought treatment, terrein seed soaking or spraying, sorghum; conditions: 2 μg/mL terrein seed soaking treatment, drought, 30 days
Method: as §1

[1] = 2 μg/mL terrein seed soaking treatment, drought, 30 days
[2] = 2 μg/mL terrein seed soaking, drought, 30 days
[3] = 2 μg/mL terrein seed soaking, drought, 30 days, p<0.05
[4] = 2 μg/mL terrein spraying at seedling stage
[5] = 2 μg/mL terrein spraying treatment, drought, 30 days
[6] = 2 μg/mL terrein spraying, drought, 30 days
[7] = 10 μg/mL terrein seed soaking treatment, drought, 30 days
[8] = 10 μg/mL terrein seed soaking, drought
[9] = 10 μg/mL terrein seed soaking, drought, 30 days
[10] = 10 μg/mL terrein spraying treatment, drought, 30 days
[11] = 10 μg/mL terrein spraying, drought
[12] = 10 μg/mL terrein spraying, drought, 30 days

`C/C=C/C1=CC(=O)[C@H](O)[C@H]1O` [terrein] was tested, and the effect on growth (pakchoi; 2 μg/mL terrein seed soaking) was “significantly promote”, the dry weight (pakchoi; [1]) was 0.16 g and the fresh weight (pakchoi; [1]) was 1.91 g. For the same molecule, the root length (pakchoi; [1]) was 15.46 cm, the seedling height (pakchoi; [1]) was 11.45 cm and the “growth rate of dry weight compared with the blank control” value (pakchoi; [2]) was 32.47%. The “growth rate of root length compared with the blank control” value (pakchoi; [2]) was 76.63%, the “effect on fresh weight compared with the blank control” value (pakchoi; [3]) was “not significant” and the “effect on seedling height compared with the blank control” value (pakchoi; [3]) was “not significant”. The effect on growth (pakchoi; [4]) was “significant promoting effect”, the dry weight (pakchoi; [5]) was 0.13 g and the fresh weight (pakchoi; [5]) was 1.75 g. The root length (pakchoi; [5]) was 11.59 cm, the seedling height (pakchoi; [5]) was 11.40 cm and the “growth rate of root length compared with the blank control” value (pakchoi; [6]) was 32.48%. The dry weight (pakchoi; [7]) was 0.18 g, the fresh weight (pakchoi; [7]) was 2.45 g and the root length (pakchoi; [7]) was 17.43 cm. For the same molecule, the seedling height (pakchoi; [7]) was 12.21 cm, the effect on growth (pakchoi; [8]) was “significant promoting effect” and the “growth rate (promotion rate) of dry weight compared with the blank control” value (pakchoi; [9]) was 49.12%. For the same molecule, the “growth rate (promotion rate) of fresh weight compared with the blank control” value (pakchoi; [9]) was 40.34%, the “growth rate (promotion rate) of root length compared with the blank control” value (pakchoi; [9]) was 99.19% and the “growth rate (promotion rate) of seedling height compared with the blank control” value (pakchoi; [9]) was 15.66%. The dry weight (pakchoi; [10]) was 0.14 g, the fresh weight (pakchoi; [10]) was 1.85 g and the root length (pakchoi; [10]) was 10.19 cm. The seedling height (pakchoi; [10]) was 10.73 cm, the effect on growth (pakchoi; [11]) was “significant promoting effects” and the “growth rate of root length compared with the blank control” value (pakchoi; [12]) was 16.45%. The effect on growth (mung bean; 2 μg/mL terrein seed soaking) was “significantly promote”, the dry weight (mung bean; [1]) was 0.15 g and the fresh weight (mung bean; [1]) was 0.98 g. The root length (mung bean; [1]) was 14.19 cm, the seedling height (mung bean; [1]) was 22.54 cm and the “growth rate of dry weight compared with the blank control” value (mung bean; [2]) was 28.07%. For the same molecule, the “growth rate of root length compared with the blank control” value (mung bean; [2]) was 44.72%, the “effect on fresh weight compared with the blank control” value (mung bean; [3]) was “not significant” and the “effect on seedling height compared with the blank control” value (mung bean; [3]) was “not significant”. For the same molecule, the effect on growth (mung bean; [4]) was “significant promoting effect”, the dry weight (mung bean; [5]) was 0.14 g and the fresh weight (mung bean; [5]) was 0.92 g. For the same molecule, the root length (mung bean; [5]) was 15.88 cm, the seedling height (mung bean; [5]) was 23.99 cm and the “growth rate of root length compared with the blank control” value (mung bean; [6]) was 61.95%. The dry weight (mung bean; [7]) was 0.16 g, the fresh weight (mung bean; [7]) was 0.87 g and the root length (mung bean; [7]) was 12.84 cm. For the same molecule, the seedling height (mung bean; [7]) was 24.21 cm, the effect on growth (mung bean; [8]) was “significant promoting effect” and the “growth rate of dry weight compared with the blank control” value (mung bean; [9]) was 35.65%. For the same molecule, the “growth rate of root length compared with the blank control” value (mung bean; [9]) was 30.92%, the dry weight (mung bean; [10]) was 0.15 g and the fresh weight (mung bean; [10]) was 1.16 g. For the same molecule, the root length (mung bean; [10]) was 15.42 cm, the seedling height (mung bean; [10]) was 22.08 cm and the effect on growth (mung bean; [11]) was “significant promoting effects”. The “growth rate (promotion rate) of dry weight compared with the blank control” value (mung bean; [12]) was 26.98%, the “growth rate (promotion rate) of fresh weight compared with the blank control” value (mung bean; [12]) was 56.18% and the “growth rate (promotion rate) of root length compared with the blank control” value (mung bean; [12]) was 57.20%. It also gave a dry weight (sorghum) of 0.37 g, a fresh weight (sorghum) of 1.71 g and a root length (sorghum) of 35.67 cm.
